This is an account of results in patent US20110045100A1, “Antimalarial Quinolines and Methods of Use Thereof” (GEORGETOWN UNIVERSITY, priority 2008, published 2011).

The test system of assay [1] is FCB (CQR strain of P. falciparum). The assay can be described thus: SYBR Green I antiplasmodial assay, strain FCB. Format: cell-based, Plasmodium falciparum. The settings on record: compared with CQ. From the text:
(§1) Bennett T. N.; Paguio, M.; Gligorijevic, B.; Seudieu, C.; Kosar, A. D.; Davidson, E.; Roepe, P. D. Novel, rapid, and inexpensive cell-based quantification of antimalarial drug efficacy. Antimicrob. Agents Chemother. 2004, 48, 1807-1810; Smilkstein, M.; Sriwilaijaroen, N.; Kelly, J. X.; Wilairat, P.; Riscoe, M. Simple and inexpensive fluorescence-based technique for high-throughput antimalarial drug screening. Antimicrob. Agents Chemother. 2004, 48, 1803-1806; and Johnson, J. D.; Dennull, R. A.; Gerena, L.; Lopez-Sanchez, M.; Roncal, N. E.; Waters, N.C. Assessment and continued validation of the malaria SYBR green I-based fluorescence assay for use in malaria drug screening. Antimicrob. Agents Chemother. 2007, 51, 1926-1933. […] Drake, N. L.; Creech, H. J.; Garman, J. A.; Haywood, S. T.; Peck, R. M.; van Hook, J. O.; Walton, E. Synthetic antimalrials. The preparation of certain 4-aminoquinolines. J. Am. Chem. Soc. […] Trans. R. Soc. Trop. Med. Hyg. […] J. Parasitol. 1983, 69, 97-105. The selectivity index provides a quantitative measure of the antimalarial activity against CQR strains relative to that against sensitive strains and thus indicates promising drug discovery leads. […] This can be combined with the introduction of a third basic amino function which should further favor accumulation of the drug within the acidic food vacuole of the parasite.
(§2) Drug activities were assessed and IC50 were quantified essentially as described previously. Delarue, S.; Girault, S.; Maes, L.; Debreu-Fontaine, M. A.; Labaeid, M.; Grellier, P.; Sergheraert, C. Synthesis and in vitro and in vivo antimalarial activity of new 4-anilinoquinolines. J. Med. Chem. 2001, 44, 2827-2833; and O'Neill, P. M.; Willock, D. J.; Hawley, S. R.; Bray, P. G.; Storr, R. C.; Ward, S. A.; Park, B. K. Synthesis, antimalarial activity, and molecular modeling of tebuquine analogues. J. Med. Chem. 1997, 40, 437-448. The aminoquinolines were diluted using complete media under sterile conditions and plated in a 96 well plate format. Sorbitol synchronized cultures were utilized with >95% of the parasites at the ring stage. Cultures were diluted to give a working stock of 0.5% parasitemia and 2% hematocrit (final hematocrit 1% & 0.5% Parasitemia). The plates were incubated for 72 h at 37° C. After 72 h, 50 μL of 10×SYBR green I dye was added to each well, and the plate was incubated for 1 h at 37° C. Fluorescence was measured at 530 nm (490 nm excitation) using a spectra geminiEM plate reader. Data analysis was performed using sigma plot 9.0 software after downloading data in Excel format.

The subject of assay [2] is Dd2 (chloroquine resistant strain of P. falciparum). Description: SYBR Green I antiplasmodial assay, strain Dd2. Format: cell-based, Plasmodium falciparum. Conditions: for activity against the CQ resistant strain Dd2 in comparison with CQ: compared with CQ.
Text: as §1
The antiplasmodial activity of these compounds was measured versus a CQS (HB3) and a CQR (Dd2) strain using a standardized, inexpensive assay based on SYBR Green I intercalation. Bennett T. N.; Paguio, M.; Gligorijevic, B.; Seudieu, C.; Kosar, A. D.; Davidson, E.; Roepe, P. D. Antimicrob. Agents Chemother. 2004, 48, 1807-1810; Smilkstein, M.; Sriwilaijaroen, N.; Kelly, J. X.; Wilairat, P.; Riscoe, M. Antimicrob. Agents Chemother. 2004, 48, 1803-1806; and Johnson, J. D.; Dennull, R. A.; Gerena, L.; Lopez-Sanchez, M.; Roncal, N. E.; Waters, N.C. Antimicrob. Agents Chemother. 2007, 51, 1926-1933. […] De, D.; Krogstad, F. M.; Cogswell, F. B.; Krogstad, D. J. Am. J. Trop. Med. Hyg. 1996, 55, 579-583. […] The basic tertiary amino function in the side chain is commonly believed to be crucial for the accumulation of the drug within the acidic food DV.
as §2

The test system of assay [3] is CQS and CQR strains of P. falciparum. The settings on record: cited from earlier work; for antimalarial activity against certain CQS and CQR strains relative to chloroquine, reported by Jensen: diastereomeric mixtures.
The test system of assay [4] is CQS (HB3, GCO3) and CQR (Dd2, FCB) strains of P. falciparum. Description: SYBR Green I antiplasmodial assay, several CQS and CQR strains. Format: cell-based, Plasmodium falciparum. Conditions: for activity vs. both CQR and CQS strains relative to 93: FIG. 23.
Text: as §1
Bennett T. N.; Paguio, M.; Gligorijevic, B.; Seudieu, C.; Kosar, A. D.; Davidson, E.; Roepe, P. D. Novel, rapid, and inexpensive cell-based quantification of antimalarial drug efficacy. Antimicrob. Agents Chemother. 2004, 48, 1807-1810; Smilkstein, M.; Sriwilaijaroen, N.; Kelly, J. X.; Wilairat, P.; Riscoe, M. Simple and inexpensive fluorescence-based technique for high-throughput antimalarial drug screening. Antimicrob. Agents Chemother. 2004, 48, 1803-1806; and Johnson, J. D.; Dennull, R. A.; Gerena, L.; Lopez-Sanchez, M.; Roncal, N. E.; Waters, N.C. Assessment and continued validation of the malaria SYBR green I-based fluorescence assay for use in malaria drug screening. Antimicrob. Agents Chemother. 2007, 51, 1926-1933.
Drug activities were assessed and IC50 were quantified essentially as described previously. Delarue, S.; Girault, S.; Maes, L.; Debreu-Fontaine, M. A.; Labaeid, M.; Grellier, P.; Sergheraert, C. Synthesis and in vitro and in vivo antimalarial activity of new 4-anilinoquinolines. J. Med. Chem. 2001, 44, 2827-2833; and O'Neill, P. M.; Willock, D. J.; Hawley, S. R.; Bray, P. G.; Storr, R. C.; Ward, S. A.; Park, B. K. Synthesis, antimalarial activity, and molecular modeling of tebuquine analogues. J. Med. Chem. 1997, 40, 437-448.

Turning to `CCN(CC)CCCN(CCCN)c1ccnc2cc(Cl)ccc12` [4b, N-(7-Chloro-4-quinolyl)-N-(3-diethylaminopropyl)-1,3-diaminopropane], the “potency against FCB in comparison with CQ” value (“potency against FCB” for short) in assay [1] is listed as “significantly more potent”. Further, the “activity against the CQ resistant strain Dd2 in comparison with CQ” value (shortened to “activity … with CQ”) in assay [2] is “clearly superior activity”.

Regarding `CCN(CC)CCCN(CC)CCNc1ccnc2cc(Cl)ccc12` [5a, N-(7-Chloro-4-quinolyl)-N-ethyl-N-(3-diethylaminopropyl)-1,2-diaminoethane], the “potency against FCB” value in assay [1] is “significantly more potent”. Also, in assay [2], the “activity … with CQ” value is reported as “clearly superior activity”.

`CCN(CC)CCCN(CC)CCCNc1ccnc2cc(Cl)ccc12` [5b, N-(7-Chloro-4-quinolyl)-N-ethyl-N-(3-diethylaminopropyl)-1,3-diaminopropane]: the “potency against FCB” value in assay [1] is on record as “significantly more potent”. Also, the “activity … with CQ” value in assay [2] is reported as “clearly superior activity”.

Turning to `CCN(CC)CCCN(CC)CCCCCNc1ccnc2cc(Cl)ccc12` [5d, N-(7-Chloro-4-quinolyl)-N-ethyl-N-(3-diethylaminopropyl)-1,5-diaminopentane], the “potency against FCB” value in assay [1] was “significantly more potent”. Further, the “activity … with CQ” value in assay [2] was “clearly superior activity”.

As for `CCNC1CCCC(N(CC)c2ccnc3cc(Cl)ccc23)C1` (centres unmarked) [16a, N-(7-Chloro-4-quinolyl)-N,N′-diethyl-1,3-diaminocyclohexane], the “antimalarial activity against certain CQS and CQR strains relative to chloroquine, reported by Jensen” value in assay [3] was “higher antimalarial activity”. Moreover, the “activity … with CQ” value in assay [2] is “clearly superior activity”.

With `CC(C)NC1CCCC(Nc2ccnc3cc(Cl)ccc23)C1` (centres unmarked) [16b, N-(7-Chloro-4-quinolyl)-N′-isopropyl-1,3-diaminocyclohexane], the “activity … with CQ” value in assay [2] was “clearly superior activity”.

Regarding `CCNC1CCC(N(CC)c2ccnc3cc(Cl)ccc23)CC1` (centres unmarked) [17a, N-(7-Chloro-4-quinolyl)-N,N′-diethyl-1,4-diaminocyclohexane], in assay [3], the “antimalarial activity against certain CQS and CQR strains relative to chloroquine, reported by Jensen” value is recorded as “higher antimalarial activity”. Further, in assay [1], the “potency against FCB” value is reported as “significantly more potent”. Besides, in assay [2], the “activity … with CQ” value is recorded as “clearly superior activity”.

With `CC(C)NC1CCC(Nc2ccnc3cc(Cl)ccc23)CC1` (centres unmarked) [17b, N-(7-Chloro-4-quinolyl)-N′-isopropyl-1,4-diaminocyclohexane], in assay [1], the “potency against FCB” value is on record as “significantly more potent”. Besides, the “activity … with CQ” value in assay [2] is “clearly superior activity”.

Consider `CCN(CCNc1ccnc2cc(Cl)ccc12)CCNS(=O)(=O)c1cccc2cccnc12` [compound 33], for which, in assay [2], the “activity against Dd2 in words” value is listed as “relatively high activity”.

As for `NCCCN(C(=O)c1ccc(F)cc1NCc1ccccc1)c1ccnc2cc(Cl)ccc12` [compound 53, N-(7-Chloro-4-quinolyl)-N-(2-benzylamino-4-fluorobenzoyl)-1,3-diaminopropane], the “activity against Dd2 compared with HB3” value in assay [2] was “significantly more active against Dd2 than HB3”.

For `CCNCCNc1ccnc2cc(Cl)ccc12` [compound 81, N-(7-Chloro-4-quinolyl)-N′-ethyl-1,2-diaminoethane], in assay [3], the “IC50 vs. CQR strains, earlier reports” value is listed as “high IC50”.

Consider `CCNCCCNc1ccnc2cc(Cl)ccc12` [compound 82, N-(7-Chloro-4-quinolyl)-N′-ethyl-1,3-diaminopropane], for which the “IC50 vs. CQR strains, earlier reports” value in assay [3] was “high IC50”.

Turning to `CCN(CC)CCNc1ccnc2cc(Cl)ccc12` [compound 86, N-(7-Chloro-4-quinolyl)-N′,N′-diethyl-1,2-diaminoethane], the “IC50 vs. CQR strains, earlier reports” value in assay [3] is listed as “substantially lower IC50”.

As to `CCN(CC)CCCNc1ccnc2cc(Cl)ccc12` [compound 87, N-(7-Chloro-4-quinolyl)-N′,N′-diethyl-1,3-diaminopropane], in assay [3], the “IC50 vs. CQR strains, earlier reports” value is on record as “substantially lower IC50”.

For the compound `CCN(CC)CCCCCOc1ccnc2cc(Cl)ccc12` [compound 94, O-(7-Chloro-4-quinolyl)-5-(N,N-diethylamino)pentanol], the IC50 – broadly, the concentration needed to halve the response being measured – in assay [4] (Plasmodium falciparum, read-out: IC50 vs. CQR parasites) is about 1000 nM.

For the compound `CCN(CC)CC(CN(CC)CC)Oc1ccnc2cc(Cl)ccc12` [compound 101, 7-Chloro-4-(1′,3′-bis(diethylamino)-2′-propoxy)quinoline], in assay [4], the “activity vs. both CQR and CQS strains relative to 93” value is on record as “significantly less active”.

Take `CCN(CC)CCCCC(CCCCN(CC)CC)Oc1ccnc2cc(Cl)ccc12` [compound 103, 7-Chloro-4-(1′,9′-bis(diethylamino)-5′-nonoxy)quinoline]: in assay [4], the “activity vs. both CQR and CQS strains relative to 93” value is recorded as “improved activity”.

Regarding `CCNCCCC(C)Nc1ccnc2cc(Cl)ccc12` (centres unmarked) [desethyl CQ, reference compound], the “activity vs. some CQR strains relative to CQ, previous studies” value in assay [3] (some CQR strains) is on record as “lower activity”.
